Measurements published in article PMC12274840 (The Journal of Biological Chemistry, 2025).
Values after ≈ are worked out from the molar mass of the structure shown. Where two headings read alike, the source gives them in different places.

Columns and labels:
[1] = system: E. coli KA797 cells carrying pUK21 with BlaC WT (Tat); assay: microbe, parasite or virus in culture; type: cell-based; details: Escherichia coli, antibiotic alone
[2] = system: E. coli KA797 cells carrying pUK21 with NmcA (pelB/Sec); assay: microbe, parasite or virus in culture; type: cell-based; details: Escherichia coli, antibiotic alone
[3] = system: E. coli KA797 cells carrying pUK21 vector without the β-lactamase gene; assay: microbe, parasite or virus in culture; type: cell-based; details: Escherichia coli; antibiotic alone; pUK21 without β-lactamase gene; read-out: MIC
[4] = system: E. coli KA797 cells carrying CTX-M-14 position 105 library; type: cell-based
[5] = system: E. coli KA797 cells carrying BlaC position 105 library; type: cell-based, Escherichia coli; details: carbenicillin; for Fi CAR AVG: average of replicates
[6] = system: E. coli KA797 cells carrying NmcA position 105 library; type: cell-based

## CC1(C)S[C@@H]2[C@H](NC(=O)C(C(=O)O)c3ccccc3)C(=O)N2[C@H]1C(=O)O (stereo partly shown) [carbenicillin]
[1]
  MIC: 800 µg/mL (≈ 2110 µM)
[2]
  MIC: 200 µg/mL (≈ 529 µM)
[3]
  MIC: 10 µg/mL (≈ 26.4 µM)
[4]; CTX-M-14 AA 105 Ala
  Significance of average fitness: -
[4]; CTX-M-14 AA 105 Arg
  Significance of average fitness: -
[4]; CTX-M-14 AA 105 Asn
  Significance of average fitness: -
[4]; CTX-M-14 AA 105 Asp
  Significance of average fitness: -
[4]; CTX-M-14 AA 105 Cys
  Significance of average fitness: -
[4]; CTX-M-14 AA 105 Gln
  Significance of average fitness: -
[4]; CTX-M-14 AA 105 Glu
  Significance of average fitness: -
[4]; CTX-M-14 AA 105 Gly
  Significance of average fitness: -
[4]; CTX-M-14 AA 105 His
  Significance of average fitness: -
[4]; CTX-M-14 AA 105 Ile
  Significance of average fitness: -
[4]; CTX-M-14 AA 105 Leu
  Significance of average fitness: -
[4]; CTX-M-14 AA 105 Lys
  Significance of average fitness: -
[4]; CTX-M-14 AA 105 Met
  Significance of average fitness: -
[4]; CTX-M-14 AA 105 Pro
  Significance of average fitness: -
[4]; CTX-M-14 AA 105 Ser
  Significance of average fitness: -
[4]; CTX-M-14 AA 105 Thr
  Significance of average fitness: -
[4]; CTX-M-14 AA 105 Val
  Significance of average fitness: -
[4]; CTX-M-14 WT (Tyr 105)
  WT abs Fi 1 (absolute fitness of wild type, Replicate 1): 0.706
[5]; AA 105 Ala
  Fi CAR AVG: -0.273
[5]; AA 105 Ala, replicate 1
  Fi CAR 1: -0.487
[5]; AA 105 Ala, replicate 3
  Fi CAR 3: -0.060
[5]; AA 105 Arg
  Fi CAR AVG: 0.354
[5]; AA 105 Arg, replicate 1
  Fi CAR 1: -0.038
[5]; AA 105 Arg, replicate 2
  Fi CAR 2: 0.623
[5]; AA 105 Arg, replicate 3
  Fi CAR 3: 0.477
[5]; AA 105 Asn
  Fi CAR AVG: 0.070
[5]; AA 105 Asn, replicate 1
  Fi CAR 1: 0.359
[5]; AA 105 Asn, replicate 2
  Fi CAR 2: -0.104
[5]; AA 105 Asn, replicate 3
  Fi CAR 3: -0.045
[5]; AA 105 Asp
  Fi CAR AVG: 0.382
[5]; AA 105 Asp, replicate 1
  Fi CAR 1: 0.054
[5]; AA 105 Asp, replicate 2
  Fi CAR 2: 0.201
[5]; AA 105 Asp, replicate 3
  Fi CAR 3: 0.891
[5]; AA 105 Cys
  Significance (Fi CAR AVG): +
  Fi CAR AVG: 0.765
[5]; AA 105 Cys, replicate 1
  Fi CAR 1: 0.616
[5]; AA 105 Cys, replicate 2
  Fi CAR 2: 0.636
[5]; AA 105 Cys, replicate 3
  Fi CAR 3: 1.043
[5]; AA 105 Gln
  Significance (Fi CAR AVG): +
  Fi CAR AVG: 1.328
[5]; AA 105 Gln, replicate 1
  Fi CAR 1: 1.419
[5]; AA 105 Gln, replicate 2
  Fi CAR 2: 1.237
[5]; AA 105 Glu
  Fi CAR AVG: 0.421
[5]; AA 105 Glu, replicate 1
  Fi CAR 1: 1.372
[5]; AA 105 Glu, replicate 2
  Fi CAR 2: -0.419
[5]; AA 105 Glu, replicate 3
  Fi CAR 3: 0.311
[5]; AA 105 Gly
  Significance (Fi CAR AVG): -
  Fi CAR AVG: -0.444
[5]; AA 105 Gly, replicate 1
  Fi CAR 1: -0.596
[5]; AA 105 Gly, replicate 2
  Fi CAR 2: -0.209
[5]; AA 105 Gly, replicate 3
  Fi CAR 3: -0.526
[5]; AA 105 His
  Significance (Fi CAR AVG): +
  Fi CAR AVG: 2.514
[5]; AA 105 His, replicate 1
  Fi CAR 1: 2.622
[5]; AA 105 His, replicate 2
  Fi CAR 2: 2.393
[5]; AA 105 His, replicate 3
  Fi CAR 3: 2.527
[5]; AA 105 Ile (WT)
  Fi CAR AVG: 0.000
[5]; AA 105 Ile (WT), replicate 1
  Fi CAR 1: 0.000
[5]; AA 105 Ile (WT), replicate 2
  Fi CAR 2: 0.000
[5]; AA 105 Ile (WT), replicate 3
  Fi CAR 3: 0.000
[5]; AA 105 Leu
  Significance (Fi CAR AVG): +
  Fi CAR AVG: 0.730
[5]; AA 105 Leu, replicate 1
  Fi CAR 1: 1.223
[5]; AA 105 Leu, replicate 2
  Fi CAR 2: 0.445
[5]; AA 105 Leu, replicate 3
  Fi CAR 3: 0.522
[5]; AA 105 Met
  Fi CAR AVG: 0.034
[5]; AA 105 Met, replicate 1
  Fi CAR 1: 0.791
[5]; AA 105 Met, replicate 3
  Fi CAR 3: -0.722
[5]; AA 105 Phe
  Significance (Fi CAR AVG): +
  Fi CAR AVG: 3.398
[5]; AA 105 Phe, replicate 1
  Fi CAR 1: 3.349
[5]; AA 105 Phe, replicate 2
  Fi CAR 2: 3.354
[5]; AA 105 Phe, replicate 3
  Fi CAR 3: 3.492
[5]; AA 105 Ser
  Significance (Fi CAR AVG): +
  Fi CAR AVG: 0.539
[5]; AA 105 Ser, replicate 1
  Fi CAR 1: 0.311
[5]; AA 105 Ser, replicate 2
  Fi CAR 2: 0.896
[5]; AA 105 Ser, replicate 3
  Fi CAR 3: 0.410
[5]; AA 105 Thr
  Fi CAR AVG: -0.255
[5]; AA 105 Thr, replicate 2
  Fi CAR 2: -0.487
[5]; AA 105 Thr, replicate 3
  Fi CAR 3: -0.023
[5]; AA 105 Trp
  Significance (Fi CAR AVG): +
  Fi CAR AVG: 3.306
[5]; AA 105 Trp, replicate 1
  Fi CAR 1: 3.226
[5]; AA 105 Trp, replicate 2
  Fi CAR 2: 3.199
[5]; AA 105 Trp, replicate 3
  Fi CAR 3: 3.493
[5]; AA 105 Tyr
  Significance (Fi CAR AVG): +
  Fi CAR AVG: 3.672
[5]; AA 105 Tyr, replicate 1
  Fi CAR 1: 3.556
[5]; AA 105 Tyr, replicate 2
  Fi CAR 2: 3.582
[5]; AA 105 Tyr, replicate 3
  Fi CAR 3: 3.878
[5]; AA 105 Val
  Fi CAR AVG: -0.016
[5]; AA 105 Val, replicate 1
  Fi CAR 1: 0.268
[5]; AA 105 Val, replicate 2
  Fi CAR 2: 0.226
[5]; AA 105 Val, replicate 3
  Fi CAR 3: -0.543
[5]; WT (Ile 105) absolute fitness, replicate 1
  WT abs Fi 1: -1.491
[5]; WT (Ile 105) absolute fitness, replicate 2
  WT abs Fi 2: -1.775
[5]; WT (Ile 105) absolute fitness, replicate 3
  WT abs Fi 3: -2.001
[6]; NmcA AA 105 Ala
  Fi AVG (average fitness of replicates): -0.798
  Significance of average fitness: -
[6]; NmcA AA 105 Arg
  Fi AVG (average fitness of replicates): -0.438
  Significance of average fitness: -
[6]; NmcA AA 105 Asn
  Fi AVG (average fitness of replicates): -0.329
  Significance of average fitness: -
[6]; NmcA AA 105 Asp
  Fi AVG (average fitness of replicates): -0.908
  Significance of average fitness: -
[6]; NmcA AA 105 Cys
  Fi AVG (average fitness of replicates): -0.727
  Significance of average fitness: -
[6]; NmcA AA 105 Gln
  Fi AVG (average fitness of replicates): -0.466
  Significance of average fitness: -
[6]; NmcA AA 105 Glu
  Fi AVG (average fitness of replicates): -0.772
  Significance of average fitness: -
[6]; NmcA AA 105 Gly
  Fi AVG (average fitness of replicates): -0.274
  Significance of average fitness: -
[6]; NmcA AA 105 His
  Fi AVG (average fitness of replicates): 0.000
[6]; NmcA AA 105 Ile
  Fi AVG (average fitness of replicates): -0.761
  Significance of average fitness: -
[6]; NmcA AA 105 Leu
  Fi AVG (average fitness of replicates): -0.728
  Significance of average fitness: -
[6]; NmcA AA 105 Lys
  Fi AVG (average fitness of replicates): -0.642
  Significance of average fitness: -
[6]; NmcA AA 105 Met
  Fi AVG (average fitness of replicates): -0.481
  Significance of average fitness: -
[6]; NmcA AA 105 Phe
  Fi AVG (average fitness of replicates): -0.458
  Significance of average fitness: -
[6]; NmcA AA 105 Pro
  Fi AVG (average fitness of replicates): -0.671
  Significance of average fitness: -
[6]; NmcA AA 105 Ser
  Fi AVG (average fitness of replicates): -0.589
  Significance of average fitness: -
[6]; NmcA AA 105 Thr
  Fi AVG (average fitness of replicates): -0.842
  Significance of average fitness: -
[6]; NmcA AA 105 Trp
  Fi AVG (average fitness of replicates): -0.118
  Significance of average fitness: -
[6]; NmcA AA 105 Tyr
  Fi AVG (average fitness of replicates): -0.304
  Significance of average fitness: -
[6]; NmcA AA 105 Val
  Fi AVG (average fitness of replicates): -0.711
  Significance of average fitness: -
[6]; NmcA WT, replicate 1
  WT abs Fi 1 (absolute fitness): 0.462
[6]; NmcA WT, replicate 2
  WT abs Fi 2 (absolute fitness): 0.578
